Measured values taken from the supplement of paper PMC11997997.

Key:
[1] = system: Mycobacterium tuberculosis CDC1551 (intracellular, in murine BMDM); test: area under intracellular growth-inhibition dose-response curve (AUC (% inhibition x dose, relative)); higher = more potent; details: duration: 6 days; dose range: 0.13-80 uM, 8 points
Summary of the method: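 Luciferase-expressing M. tuberculosis CDC1551 was used at multiplicity of infection 1 for 1 h to infect primary murine bone marrow-derived macrophages in 384-well opaque plates, 24 h after seeding. Treatment followed for 6 days with an 8-dose, 2.5-fold series at final concentrations of 80–0.13 μM. GraphPad Prism was used to calculate the area under the growth-inhibition dose–response curve from Bright-Glo luciferin readings normalised to a reference drug control and the lowest-concentration wells.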

[2] = system: murine bone marrow-derived macrophages; test: area under cytotoxicity dose-response curve (AUC (% cytotoxicity x dose, relative)); higher = more cytotoxic; details: duration: 6 days; dose range: 0.13-80 uM, 8 points
Summary of the method: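 Cytotoxicity is given as the area under the dose–response curve, computed in GraphPad Prism version 10. Primary murine bone marrow-derived macrophages in opaque 384-well plates received an 8-point, 2.5-fold dilution series (final 80–0.13 μM) for 6 days at 37 °C in 5% CO2. Viability was measured by Promega's CellTiter-Glo luminescence assay, with percent cytotoxicity normalised to vehicle and positive control wells.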

| SMILES | area under intracellular growth-inhibition dose-response curve [1] | area under cytotoxicity dose-response curve [2] |
| --- | --- | --- |
| O=C(Nc1cccc(Cl)c1)NC1CC2CCC1C2 (stereo unspecified) | 232 | 31.1 |
| c1ccc2c(c1)-c1cccc3cncc-2c13 | 200 | 36.8 |
| N#C/C(=N\Nc1ccc(Cl)cc1)C(N)=S | 102 | 16.4 |
| Cn1nc(C(=O)OCC(=O)NCc2ccc(Cl)cc2)c2ccccc2c1=O | 83 | 4.5 |
| C/C(=N\Cc1ccc2c(c1)OCO2)C1=C(O)c2ccccc2C1=O | 214 | < 0 |
| COc1cc(OC)c(/C=N/NC(=O)c2ccncc2)c(OC)c1 | 272 | 60.6 |
| COc1ccc(/C=N/Nc2nc(-c3ccc(C)cc3)c(NC(C)=O)s2)cc1 | 272 | < 0 |
| Cc1ccc(/C=N/NC(=O)C2COc3ccccc3O2)s1 (stereo unspecified) | 196 | < 0 |
| COc1ccc(C)cc1-n1nnnc1SC(C)C(=O)NC1CCCC1 (stereo unspecified) | 44.8 | < 0 |
| C/C(CC(=O)Nc1ccccc1C#N)=N\NC(=O)c1ccncc1 | 229 | 98.9 |
| S=C(Nc1ccc(Oc2ccccc2)cc1)NC1CCCCCC1 | 155 | 210 |
| O=C(NNC(=O)c1ccc(-c2ccc([N+](=O)[O-])cc2)o1)c1ccncc1 | 264 | 40.4 |
| O=C(NN=C1CCCCCCCCCCC1)c1ccncc1 | 262 | 73.9 |
| CCCCNC(=O)/C=C/c1cccs1 | 191 | 7.87 |
| O=C(N/N=C/c1ccc(Sc2nc3ccccc3[nH]2)o1)c1ccncc1 | 269 | 34.4 |
| COc1cccc(/C=N/NC(N)=S)c1OS(=O)(=O)c1ccccc1 | 237 | 94.4 |
| CCOC(=O)C1=C(COC(=O)c2ccc(OC)c(S(=O)(=O)N3CCOCC3)c2)NC(=O)NC1C (stereo unspecified) | 56.9 | 65.5 |
| Cc1cc(C(=O)NC2CCCCCCC2)ccc1[N+](=O)[O-] | 220 | < 0 |
| O=C(COc1ccccc1)NC1C(=O)N2C(C(=O)O)=C(Cl)CSC12 (stereo unspecified) | 144 | < 0 |
| COc1ccccc1C=NNC(=O)c1ccncc1 | 266 | 9 |
| CCCc1cc(C(=O)NC2CCCCC2)no1 | 232 | 108 |

| SMILES | area under intracellular growth-inhibition dose-response curve [1] | area under cytotoxicity dose-response curve [2] |
| --- | --- | --- |
| Nc1nc(F)nc2c1ncn2[C@@H]1O[C@H](CO)[C@@H](O)[C@H]1O | < 0 | 236 |
| Cc1cc(OCCCC(=O)NNC(=O)c2ccncc2)ccc1Cl | 245 | 25.3 |
| CNc1nc(SC)nc2ccccc12 | 242 | 77.9 |
| Br.CCCc1cc(-c2nc(-c3ccc(Cl)cc3)cs2)ccn1 | 163 | 78.3 |
| O=C(NC1CCCC1)c1ccc(Br)s1 | 220 | 54.8 |
| CCOc1ccc2oc(C(=O)OCC(=O)NC3CCCCC3)c(C)c2c1 | 119 | < 0 |
| CC(=O)Nc1sc(N/N=C\c2ccc(O)cc2)nc1-c1cccs1 | 194 | 155 |
| FC(F)(Cl)c1nnc2ccc(Cl)nn12 | 126 | 26.5 |
| CC(C)C(=O)N1CCN(c2ccc(NC(=O)c3ccc([N+](=O)[O-])o3)cc2)CC1 | 64.2 | 84.2 |
| CNC(=S)Nc1ccc(OCc2ccccc2)cc1 | 242 | 75.3 |
| Cc1ccc(C(=O)c2oc3ccc(Cl)cc3c2NC(=O)CN2CCN(C)CC2)cc1 | 131 | 69.1 |
| Cc1c2c(nc3ccccc13)CCC(C)C2.Cl (stereo unspecified) | 199 | < 0 |
| Cc1cc2oc(=O)cc(-c3ccccc3)c2c(C)c1-c1ccc(CO)cc1 | 271 | < 0 |
| Cc1ccc(Cn2cc(-c3ccccc3)nn2)cc1 | 191 | 11.2 |
| COc1ccc(CCNC(=O)c2ccc(Cl)cc2)cc1 | 241 | < 0 |
| CCC(=O)N(C)CCc1cc2c(c(OC)c1/C=N/NC(=O)c1ccncc1)OCO2 | 127 | 48.4 |
| COc1ccc(/C=C/C(=O)c2ccc([N+](=O)[O-])o2)cc1 | 162 | 71.5 |
| Cc1ccc(OCCCC(=O)Nc2ccc(S(=O)(=O)N3CCOCC3)cc2)cc1 | 53.8 | 3.26 |
| O=C(N/N=C/C=C/c1ccccc1)c1ccncc1 | 266 | < 0 |
| COc1ccc(C2=NCCn3c2c2ccc(C(F)(F)F)cc2[n+]3[O-])cc1 | 95.2 | 108 |
| Cc1nn(Cc2ccccc2)c(Cl)c1C(=O)NCc1ccco1 | 104 | 16.8 |

| SMILES | area under intracellular growth-inhibition dose-response curve [1] | area under cytotoxicity dose-response curve [2] |
| --- | --- | --- |
| NC1=NC[C@@H](CC2CCCCC2)N1CCc1cc(C(F)(F)F)cc(C(F)(F)F)c1 | 52.6 | 109 |
| CCC(NC(=O)Nc1nnc(C(F)(F)F)s1)(C(F)(F)F)C(F)(F)F | 143 | 14.5 |
| COc1ccc(-c2ncn(CCC#N)c2[N+](=O)[O-])cc1 | 119 | 8.24 |
| C=CCNc1nc(C(=O)OCC(=O)NCc2cccc(Cl)c2)cs1 | < 0 | 96 |
| O=C(COc1ccc(Cl)cc1)N1CCCC1 | 213 | 64 |
| O=C(Nc1ccc(NC(=S)NC(=O)c2ccccc2F)cc1)c1cccs1 | 268 | 13.8 |
| CS(=O)(=O)c1ccc([C@@H](O)[C@@H](CF)NC(=O)C(Cl)Cl)cc1 | 78.9 | 62.1 |
| Cc1ccc(C(=O)N2CCN(c3ccc(NC(=S)NC(=O)Cc4ccccc4)cc3)CC2)cc1 | 212 | 53.7 |
| O=C(N/N=C/c1ccccc1Cl)c1ccncc1 | 234 | 69.2 |
| CC(NC(=O)c1ccc(F)cc1)C1CC2CCC1C2 (stereo unspecified) | 168 | 238 |
| COc1ccc2nc(C)cc(N/N=C/c3ccccc3)c2c1 | 136 | 97.6 |
| COc1cccc(OCCNC(=O)c2cc([N+](=O)[O-])cc([N+](=O)[O-])c2)c1 | 265 | 10.6 |
| Nc1ccc(C(=O)O)c(O)c1 | 182 | 62.3 |
| COc1ccc(/C=N/NC(=O)c2ccncc2)cc1Cn1nc([N+](=O)[O-])c(Br)c1C | 273 | < 0 |
| NC(=S)N/N=C/C=C/c1ccccc1 | 243 | 82.2 |
| CCc1ccc(C(=O)NCc2cccs2)s1 | 220 | 17.6 |
| COC(=O)C1C(O)C(C)C(O)C(C)/C=C\C=C(/C)C(=O)Nc2c(C)c(OC(C)=O)c3c(c2O)C(=O)C(C)=C2OCOC(=C23)/C(C)=C/C(C)(O)C(O)C(C)C1O (stereo unspecified) | 216 | 11.5 |
| CC(C)[C@H](CN1CCC[C@H]1CN1C(N)=NC[C@@H]1Cc1ccccc1)N1C[C@@H](Cc2ccccc2)N(CCc2ccc(Cl)c(Cl)c2)C1=N | 211 | 52.7 |
| O=C(c1cccs1)N1CCC(c2ccccc2)C1 (stereo unspecified) | 189 | < 0 |
| CCCCC(=O)NCc1ccc(Cl)cc1 | 197 | 27.4 |
| O=C(c1ccc(Cl)s1)N1CCN(c2ncccn2)CC1 | 86.8 | 31.4 |
